Experimental findings from ChEMBL document CHEMBL5053531, “Development of BromoTag: A "Bump-and-Hole"-PROTAC System to Induce Potent, Rapid, and Selective Degradation of Tagged Target Proteins” (J Med Chem, 2021) are described below.

Series [1] addresses T1, von Hippel-Lindau disease tumor suppressor/Bromodomain-containing protein 2 (Homo sapiens, UniProt P25440+P40337). The series is described as follows: Bump and hole PROTAC activity at BromoTag-Brd2/VHL-bound E3 ligase in HEK293 cells assessed as Brd2 degradation at 1 uM measured after 6 hrs by Western blot analysis. It counts as cell-based.
Target sequence in this assay (P25440 whole entry, looked up): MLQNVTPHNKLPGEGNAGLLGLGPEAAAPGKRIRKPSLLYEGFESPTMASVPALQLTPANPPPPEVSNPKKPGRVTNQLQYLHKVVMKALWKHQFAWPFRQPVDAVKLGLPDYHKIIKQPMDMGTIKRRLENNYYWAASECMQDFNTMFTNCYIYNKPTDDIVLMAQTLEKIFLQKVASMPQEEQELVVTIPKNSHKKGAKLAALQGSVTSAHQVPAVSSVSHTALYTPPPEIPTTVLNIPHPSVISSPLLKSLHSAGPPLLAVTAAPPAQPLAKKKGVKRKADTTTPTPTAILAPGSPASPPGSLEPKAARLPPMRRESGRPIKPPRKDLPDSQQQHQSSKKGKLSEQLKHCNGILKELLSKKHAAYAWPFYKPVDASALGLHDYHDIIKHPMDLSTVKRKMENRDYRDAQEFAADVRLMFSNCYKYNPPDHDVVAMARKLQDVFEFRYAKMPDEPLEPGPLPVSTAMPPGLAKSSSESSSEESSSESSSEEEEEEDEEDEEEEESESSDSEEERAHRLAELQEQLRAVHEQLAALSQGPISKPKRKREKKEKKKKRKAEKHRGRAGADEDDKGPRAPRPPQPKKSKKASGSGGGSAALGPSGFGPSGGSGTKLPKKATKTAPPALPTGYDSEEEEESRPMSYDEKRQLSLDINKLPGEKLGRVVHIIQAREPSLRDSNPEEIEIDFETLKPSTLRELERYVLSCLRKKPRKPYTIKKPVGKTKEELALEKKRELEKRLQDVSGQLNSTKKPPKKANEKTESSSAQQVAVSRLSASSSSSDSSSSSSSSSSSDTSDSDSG
Target sequence in this assay (P40337 whole entry, looked up): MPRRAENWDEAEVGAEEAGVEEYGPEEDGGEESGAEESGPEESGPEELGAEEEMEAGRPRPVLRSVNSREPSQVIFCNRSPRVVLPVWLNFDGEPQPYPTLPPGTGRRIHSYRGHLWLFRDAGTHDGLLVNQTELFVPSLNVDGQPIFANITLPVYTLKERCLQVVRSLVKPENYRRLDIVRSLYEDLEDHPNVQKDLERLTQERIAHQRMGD
In series [2] the target is T1, von Hippel-Lindau disease tumor suppressor/Bromodomain-containing protein 2. Description: Bump and hole PROTAC activity at BromoTag-Brd2/VHL-bound E3 ligase in HEK293 cells assessed as Brd2 degradation at 0.001 to 10 uM measured after 6 hrs by Western blot analysis. Particulars: dose 0.001-10 µM. In kind it is cell-based.
Target sequence in this assay (P25440 whole entry, looked up): as the sequence (P25440 whole entry, looked up) above
Target sequence in this assay (P40337 whole entry, looked up): as the sequence (P40337 whole entry, looked up) above
Series [3] can be described thus: AUC (0 to infinity) in C57BL/6 mouse at 5 mg/kg, sc measured up to 8 hrs by LC-MS analysis. Details: dose 5 mg/kg, time < 8 hrs, route sc. Particulars: in vivo. In kind it is ADME, organism-based.
Series [4] in a line: Bioavailability in C57BL/6 mouse at 5 mg/kg, sc measured up to 8 hrs by LC-MS analysis. Particulars: in vivo. It counts as ADME, organism-based.
The nature of series [5]: Half life in C57BL/6 mouse at 5 mg/kg, iv measured up to 8 hrs by LC-MS analysis. Particulars: in vivo. In kind it is ADME, organism-based.
The nature of series [6]: MRT (0 to infinity) in C57BL/6 mouse at 5 mg/kg, iv measured up to 8 hrs by LC-MS analysis. Particulars: in vivo.
A short description of series [7]: Half life in C57BL/6 mouse at 5 mg/kg, sc measured up to 8 hrs by LC-MS analysis. Particulars: in vivo. In kind it is ADME, organism-based.
A short description of series [8]: Stability in mouse plasma measured up to 60 mins. It counts as ADME, cell-free. Particulars: 1 h.
Another series has as its system CWR22R. Description: cells. Particulars: Homo sapiens, 22Rv1, 48 h, read-out: pEC50 (converted).
The target in series [9] is T1, von Hippel-Lindau disease tumor suppressor/Bromodomain-containing protein 2. The series is described as follows: Bump and hole PROTAC activity at BromoTag-Brd2/VHL-bound E3 ligase in HEK293 cells assessed as Brd2 degradation measured after 6 hrs by Western blot analysis. In kind it is cell-based. On the technique in general: In western blotting, separated proteins are transferred to a membrane and probed.
Target sequence in this assay (P25440 whole entry): as the sequence (P25440 whole entry, looked up) above
Target sequence in this assay (P40337 whole entry): as the sequence (P40337 whole entry, looked up) above

Active and inactive are the calls of the source. The calls are words filed in the database; no cut-off is given here.

For orientation: AUC(0-inf) means total exposure, with the tail of the curve extrapolated. Usually half-life stands for the time in which the quantity being followed falls by half. By MRT inf is commonly meant the average time that molecules of a dose stay in the body.

Description for CWR22R: Antiproliferative activity against human BET-sensitive 22Rv1 cells assessed as reduction in cell viability measured after 48 hrs by Celltiter-Glo assay

For `CC[C@@H](C(=O)NCCOCCOCCOCC(=O)N[C@H](C(=O)N1C[C@H](O)C[C@H]1C(=O)NCc1ccc(-c2scnc2C)cc1)C(C)(C)C)[C@@H]1N=C(c2ccc(Cl)cc2)c2cc(OC)ccc2-n2c(C)nnc21` (mixture of isomers), the result in series [1] was inactive.
As to `Cc1ncsc1-c1ccc([C@H](C)NC(=O)[C@@H]2C[C@@H](O)CN2C(=O)[C@@H](NC(=O)COCCCOCCNC(=O)C(C)C2N=C(c3ccc(Cl)cc3)c3c(sc(C)c3C)-n3c(C)nnc32)C(C)(C)C)cc1` (mixture of isomers), in series [2], the Brd2 degradation activity result is “Active”.
Turning to `Cc1ncsc1-c1ccc(CNC(=O)[C@@H]2C[C@@H](O)CN2C(=O)[C@@H](NC(=O)COCCOCCOCCOC(=O)C(C)C2N=C(c3ccc(Cl)cc3)c3c(sc(C)c3C)-n3c(C)nnc32)C(C)(C)C)cc1` (mixture of isomers), in series [2], the Brd2 degradation activity result is “Active”.
`Cc1ncsc1-c1ccc(CNC(=O)[C@@H]2C[C@@H](O)CN2C(=O)[C@@H](NC(=O)COCCOCCOCCNC(=O)C(C)C2N=C(c3ccc(Cl)cc3)c3c(sc(C)c3C)-n3c(C)nnc32)C(C)(C)C)cc1` (mixture of isomers): in series [2], the Brd2 degradation activity result was “Active”.
On to `Cc1ncsc1-c1ccc(CNC(=O)[C@@H]2C[C@@H](O)CN2C(=O)[C@@H](NC(=O)COCCOCCOCCNC(=O)C[C@@H]2N=C(c3ccc(Cl)cc3)c3c(sc(C)c3C)-n3c(C)nnc32)C(C)(C)C)cc1`, for which the AUC(0-inf) in series [3] was found to be 3.76 µM·h. In addition, the bioavailability in series [4] was found to be 83%. Also, the half-life is 1.04 h in series [5] and 2.95 h in series [7]. Besides, the mean residence time (MRT inf) in [6] is 0.34 h.
Take `CC[C@@H](C(=O)OCCOCCOCCOCC(=O)N[C@H](C(=O)N1C[C@H](O)C[C@H]1C(=O)NCc1ccc(-c2scnc2C)cc1)C(C)(C)C)[C@@H]1N=C(c2ccc(Cl)cc2)c2c(sc(C)c2C)-n2c(C)nnc21`: the bioavailability in series [4] turned out to be 140%. Moreover, the Stability result in series [8] is listed as “Stable”.
As for `CC[C@@H](C(=O)NCCOCCOCCOCC(=O)N[C@H](C(=O)N1C[C@H](O)C[C@H]1C(=O)NCc1ccc(-c2scnc2C)cc1)C(C)(C)C)[C@@H]1N=C(c2ccc(Cl)cc2)c2ccc(OC)cc2-n2c(C)nnc21` (mixture of isomers), the outcome in series [1] was inactive.
Still for that read-out and setting: the value for `COc1ccc2c(c1)-n1c(C)nnc1[C@H]([C@@H](C)C(=O)NCCOCCOCCOCC(=O)N[C@H](C(=O)N1C[C@H](O)C[C@H]1C(=O)NCc1ccc(-c3scnc3C)cc1)C(C)(C)C)N=C2c1ccc(Cl)cc1` (mixture of isomers) was “inactive”.
Turning to `CCC(C(=O)NCCOCCCOCC(=O)N[C@H](C(=O)N1C[C@H](O)C[C@H]1C(=O)N[C@@H](C)c1ccc(-c2scnc2C)cc1)C(C)(C)C)C1N=C(c2ccc(Cl)cc2)c2c(sc(C)c2C)-n2c(C)nnc21` (mixture of isomers), the Brd2 degradation activity entry in [2] is “Active”.
On to `CC[C@@H](C(=O)OCCOCCOCCOCC(=O)N[C@H](C(=O)N1C[C@@H](O)C[C@H]1C(=O)NCc1ccc(-c2scnc2C)cc1)C(C)(C)C)[C@@H]1N=C(c2ccc(Cl)cc2)c2c(sc(C)c2C)-n2c(C)nnc21`, for which the EC50 in the series with CWR22R was 5.01 µM.
Turning to `Cc1ncsc1-c1ccc([C@H](C)NC(=O)[C@@H]2C[C@@H](O)CN2C(=O)[C@@H](NC(=O)COCCCOCCOC(=O)C(C)C2N=C(c3ccc(Cl)cc3)c3c(sc(C)c3C)-n3c(C)nnc32)C(C)(C)C)cc1` (mixture of isomers), the Brd2 degradation activity entry in series [2] is “Active”.
As to `CCC(C(=O)OCCOCCCOCC(=O)N[C@H](C(=O)N1C[C@H](O)C[C@H]1C(=O)N[C@@H](C)c1ccc(-c2scnc2C)cc1)C(C)(C)C)C1N=C(c2ccc(Cl)cc2)c2c(sc(C)c2C)-n2c(C)nnc21` (mixture of isomers), the pDC50 in [9] was 7.8.
